Numbers after ± are expanded uncertainties.
Columns and labels:
[1] = Crystal
[2] = refractive index (Na D-line) (dimensionless); conditions: 293.15 K; 101.33 kPa; Liquid; digital refractometer

`CCCCCCCCCCCCCCCC` [hexadecane] gave a Normal melting temperature ([1]; Heating/Cooling curves) of 18.1 ± 2 °C, a Normal melting temperature ([1]; heating/cooling curves) of 18.0 ± 2 °C and a refractive index [2] of 1.43461 ± 0.0014.

Compound `CCCC(=O)O` [butanoic acid] has a Normal melting temperature ([1]; Heating/Cooling curves) of -5.2 ± 2 °C and a refractive index [2] of 1.39808 ± 0.0014.

Compound `C1CCCCC1` [cyclohexane] has a Normal melting temperature ([1]; Heating/Cooling curves) of 6.7 ± 2 °C and a refractive index [2] of 1.42631 ± 0.0014.

Compound `CCCCC(=O)O` [pentanoic acid] has a Normal melting temperature ([1]; Heating/Cooling curves) of -34.4 ± 2 °C and a refractive index [2] of 1.40857 ± 0.0015.

`CCC(=O)O` [propanoic acid] gave a Normal melting temperature ([1]; Heating/Cooling curves) of -20.8 ± 2 °C and a refractive index [2] of 1.38682 ± 0.0014.

For `CCCCCC(=O)O` [hexanoic acid], the Normal melting temperature ([1]; Heating/Cooling curves) was -2.4 ± 2 °C and the refractive index [2] was 1.41692 ± 0.0015.

For `CCCCCCC(=O)O` [heptanoic acid], the Normal melting temperature ([1]; Heating/Cooling curves) was -7.5 ± 2 °C and the refractive index [2] was 1.4229 ± 0.0014.

Source: the NIST ThermoML archive (doi:10.1016/j.jct.2012.09.019)
